Reference: patent US20240318141A1, “MATURATION AGENT” (Orizuru Therapeutics, Inc., priority 2021, published 2024)
Where “and” joins values, the source holds several entries; their conditions need not be identical. Identical values can stand only once.

Tested on: non-endocrine cells in insulin-producing cell population (QHJI-114s04 iPS cell line)
Assay: Docetaxel treatment of cell population comprising insulin-producing cells, then extended culture in basal medium containing EGF (Example 4)
Format: cell-based, human
Conditions: for proportions of PDX1+/CHGA− and PDX1−/CHGA− cells after extended culture involving EGF: with respect to control cell population
Text: The differentiation of a QHJI-114s04 iPS cell line into an insulin-producing cell population was induced by the three-dimensional culture method using a bioreactor according to steps 1) to 6) described above and the previous report (Nature Biotechnology 2014; 32: 1121-1133). Specifically, the iPS cells were subjected to the first culture in a medium (DMEM/1% B-27 (INS+)/Penicillin Streptomycin/dimethyl sulfoxide) containing differentiation-inducing factors (GSK3β inhibitor, ROCK inhibitor and low dose of activin A) under conditions causing action of insulin, and subsequently subjected to the second culture in a medium (DMEM/1% B-27 (INS−)/Penicillin Streptomycin/dimethyl sulfoxide) containing a differentiation-inducing factor (low dose of activin A) under conditions causing no action of insulin to obtain a definitive endoderm cell population. […] The exchange from the bioreactor to the multiwell plate was carried out in step 6).
Marker protein expression (PDX1 and CHGA) in each cell population before the start of and after the completion of extended culture was measured by flow cytometry. Marker protein expression (NKX6.1, C-peptide (insulin), PDX1, and CHGA) in the cell population obtained 7 days after the start of step 6) was also measured by flow cytometry. Respective samples were collected by sampling from separate culture containers. The number of cells was measured in an automatic cell counter at the time of sample preparation for flow cytometry, and the total number of cells per well of the multiwell plate was calculated.

[1] = +Docetaxel 4 days from day 7 (1 μM), s6d11
[2] = +Docetaxel 4 days from day 7, after extended culture, EGF absent
[3] = +Docetaxel 4 days from day 7, after extended culture, EGF present
[4] = +Docetaxel 7 days from day 4 (1 μM), s6d11
[5] = +Docetaxel 7 days from day 4, after extended culture, EGF absent
[6] = +Docetaxel 7 days from day 4, after extended culture, EGF present

## CC(=O)O[C@@]12CO[C@@H]1C[C@H](O)[C@@]1(C)C(=O)[C@H](O)C3=C(C)[C@@H](OC(=O)[C@H](O)[C@@H](NC(=O)OC(C)(C)C)c4ccccc4)C[C@@](O)([C@@H](OC(=O)c4ccccc4)[C@H]21)C3(C)C [Docetaxel, (−)-(1S,2S,3R,4S,5R,7S,8S,10R,13S)-4-Acetoxy-2-benzoyloxy-5,20-epoxy-1,7,10-trihydroxy-9-oxotax-11-en-13-yl (2R,3S)-3-tert-butoxycarbonylamido-2-hydroxy-3-phenylpropionate]
+Docetaxel 4 days from day 7
  population exhibiting marked increase by extended culture involving EGF (table footnote): No population exhibited marked increase by extended culture involving EGF
  proportions of PDX1+/CHGA− and PDX1−/CHGA− cells after extended culture involving EGF: drastically decreased
[1]
  The number of cells CHGA+: 177 ×10^4 cells/well
  The number of cells PDX+/CHGA−: 0.7 ×10^4 cells/well
  The number of cells PDX−/CHGA−: 0.9 ×10^4 cells/well
  Total number of cells: 178 ×10^4 cells/well
[2]
  The number of cells CHGA+: 132 ×10^4 cells/well
  The number of cells PDX+/CHGA−: 1.5 ×10^4 cells/well
  The number of cells PDX−/CHGA−: 6.3 ×10^4 cells/well
  Total number of cells: 140 ×10^4 cells/well
[3]
  The number of cells CHGA+: 144 ×10^4 cells/well and 133 ×10^4 cells/well and 147 ×10^4 cells/well
  The number of cells PDX+/CHGA−: 1.1 ×10^4 cells/well and 1.3 ×10^4 cells/well and 1.2 ×10^4 cells/well
  The number of cells PDX−/CHGA−: 5.6 ×10^4 cells/well and 6.6 ×10^4 cells/well and 5.9 ×10^4 cells/well
  Total number of cells: 151 ×10^4 cells/well and 141 ×10^4 cells/well and 154 ×10^4 cells/well
+Docetaxel 7 days from day 4
  population exhibiting marked increase by extended culture involving EGF (table footnote): No population exhibited marked increase by extended culture involving EGF
  proportions of PDX1+/CHGA− and PDX1−/CHGA− cells after extended culture involving EGF: drastically decreased
[4]
  The number of cells CHGA+: 209 ×10^4 cells/well
  The number of cells PDX+/CHGA−: 0.4 ×10^4 cells/well
  The number of cells PDX−/CHGA−: 0.8 ×10^4 cells/well
  Total number of cells: 210 ×10^4 cells/well
[5]
  The number of cells CHGA+: 126 ×10^4 cells/well
  The number of cells PDX+/CHGA−: 1.5 ×10^4 cells/well
  The number of cells PDX−/CHGA−: 5.0 ×10^4 cells/well
  Total number of cells: 132 ×10^4 cells/well
[6]
  The number of cells CHGA+: 132 ×10^4 cells/well and 127 ×10^4 cells/well and 159 ×10^4 cells/well
  The number of cells PDX+/CHGA−: 0.8 ×10^4 cells/well and 1.5 ×10^4 cells/well
  The number of cells PDX−/CHGA−: 4.7 ×10^4 cells/well and 2.9 ×10^4 cells/well and 4.8 ×10^4 cells/well
  Total number of cells: 138 ×10^4 cells/well and 165 ×10^4 cells/well
